{"source": "patent US20210186905A1", "about": "“ENHANCING T-CELL FUNCTION AND TREATING A T-CELL DYSFUNCTIONAL DISORDER WITH A COMBINATION OF AN LSD INHIBITOR AND A PD-1 BINDING ANTAGONIST” (EpiAxis Therapeutic Pty Ltd, priority 2017, published 2021)", "key": {"[1]": {"test_system": "LSD1p, CSV and ALDH1A", "test": "Immunofluorescence of FFPE tissue, metastatic lesions in lung or liver of 4T1 mice", "format": "in vivo, mouse", "procedure": "FIG. 3 is a photographic and graphical representation showing that dual epigenetic-immunotherapy inhibits metastatic progression in 4T1 Mouse model. A. 4T1 Treatment FFPE from each treatment group (Group A=Control, Group C: PD1 (10 mg/kg), Group D: Phenelzine (40 mg/kg), Group F: PD1+Phenelzine) and for each target organ (Lung and Liver) was processed for 3D high resolution microscopy using the BondRX. FFPE tissues were fixed and Immunofluorescence microscopy was performed probing with rabbit LSD1(S111p); mouse anti CSV and goat anti […] and visualized with a donkey anti-rabbit AF 488, anti-mouse 568 and anti-goat 633. Cover slips were mounted on glass microscope slides with ProLong Diamond Antifade reagent (Life Technologies). Protein targets were localized by confocal laser scanning microscopy. Single 0.5 μm sections were obtained using a Leica DMI8 microscope using 100× oil immersion lens running LAX software. The final image was obtained by averaging four sequential images of the same section. Digital images were analyzed using ImageJ software (ImageJ, NIH, Bethesda, Md., USA) to determine the either the Total Nuclear Fluorescent Intensity (TNFI), the Total Cytoplasmic Fluorescent Intensity (TCFI) or total Fluorescent Intensity (TFI). N=40 cells were counted. B. Graphs for both organs are presented here. Graphs represent the TNFI values for LSD1, ALDH1A and TCFI for CSV measured using ImageJ to select the nucleus minus background. Representative images for the Lung dataset are shown.\nThe expression of a mesenchymal, stem-like biomarker panel was examined in metastatic sites in a 4T1 mouse model treated with vehicle control (Group A), anti-PD1 antibody (10 mg/kg) (Group C), phenelzine sulfate (40 mg/kg) (Group D) or a combination of both (Group F). The present inventors examined the presence of metastatic lesions in the lung or liver and measured the immunofluorescence (IF) of formalin-fixed paraffin-embedded (FFPE) tissue examining the IF intensity of LSD1p, CSV and ALDH1A.\n4T1 Treatment FFPE from each treatment group primary tumor biopsies were processed in the BondRX for IFA staining using the instrument protocol: ER2 for 20 mins at 100° C. with Epitope Retrieval Solution 2 which is a pH-9 EDTA based retrieval solution followed by probing with rabbit anti LSD1 (S111p); mouse anti CSV and goat anti ALDH1A and visualized with a donkey anti-rabbit AF 488, anti-mouse 568 and anti-goat 633 or anti rat 633. Cover slips were mounted on glass microscope slides with ProLong Diamond Antifade reagent (Life Technologies). Protein targets were localized by confocal laser scanning microscopy. Single 0.5 μm sections were obtained using a Leica DMI8 microscope using 100× oil immersion lens running LAX software. The final image was obtained by averaging four sequential images of the same section. Digital images were analysed using ImageJ software (ImageJ, NIH, Bethesda, Md., USA) to determine the either the Total Nuclear Fluorescent Intensity (TNFI), the Total Cytoplasmic Fluorescent Intensity (TCFI) or total Fluorescent Intensity (TFI)."}, "[2]": {"test_system": "IFN-γ and TNF-α", "test": "Immunofluorescence of IFN-γ and TNF-α in CD8+ T-cells", "format": "in vivo, mouse", "settings": "IF % change", "procedure": "FIG. 5 is a graphical representation showing that dual epigenetic-immunotherapy re-educates and re-programs the T-cell repertoire. A. Cells stimulated with PMA/ionomycin for 4 hours in the presence of Brefeldin A. Cells were surfaced stained with CD45, CD3, CD4, CD8, CD44, CD62L (for naïve, effector and central memory), CD25 and FoxP3 (for Tregs) and analyzed via Flow cytometry. A Mann-Whitney non-parametric t-test was used to compare control vs other groups (*p<0.05, n=2-5). […] Representative images for each dataset are shown. TNFI values for EOMES, TBET and Ki67 measured using Image) to select the nucleus minus background. […] Cells stimulated with PMA/ionomycin for 4 hours in the presence of Brefeldin A. Cell were surfaced stained with CD45, CD3, CD4, CD8 and intracellular staining of IFN-γ, IL-2 and TNF-α in the presence of Brefeldin A and analyzed via flow cytometry. […] TNFI values for TNFα and IFNγ measured using ImageJ to select the nucleus minus background. […]\nA total of 2×10^5 cells were injected per mouse into mammary gland in 50 μL of phosphate buffered saline (PBS). […] Tumors were measured using calipers and the tumor volumes (mm3) were calculated using the formula (length×width2)/2. ? arvested cells from primary tumors where then cytospun ? -treated with poly-1-lysine and fixed then stored in PBS for IFA Microscopy Analysis. […]"}}, "note": "Counter-ions that a name gives are not always drawn.", "data": [{"molecule": "NNCCc1ccccc1", "note": "(racemic) [phenelzine sulfate, (±)-2-phenylethylhydrazine]", "values": [{"measurement": "ALDH1A expression", "setting": "[1]; liver lesions", "result": "strongly inhibited"}, {"measurement": "CSV expression", "setting": "[1]; liver lesions", "result": "strongly inhibited"}, {"measurement": "LSD1p IF intensity", "setting": "[1]; liver lesions", "result": "strongly inhibited"}, {"measurement": "ALDH1A expression", "setting": "[1]; lung lesions", "result": "strongly inhibited"}, {"measurement": "CSV expression", "setting": "[1]; lung lesions", "result": "strongly inhibited"}, {"measurement": "LSD1p IF intensity", "setting": "[1]; lung lesions", "result": "strongly inhibited"}, {"measurement": "IFN-γ expression", "setting": "[2]", "result": "no significant effect"}]}]}
